In brackets after ≈: the same amount, converted by molar mass. Where two headings read alike, the source gives them in different places.
Tests used:
[1] = Short-term (bench-top) and frozen storage stability of MJC13 in rat plasma and rat urine; type: in vitro ADME
Experimental: Short-term stability (bench-top stability) of MJC13 in rat plasma and rat urine were evaluated by analyzing triplicates of QC samples at low, medium, and high concentrations. Plasma samples were removed from frozen storage (−20° C.) and remained on the bench-top for 2, 4, or 6 hours. All of those samples were compared with freshly prepared samples at the same concentrations. […] Another set of plasma samples were stored at −80° C. for 7 days.
(§1) The stability of MJC13 in rat urine was conducted in the same fashion as in rat plasma.

[2] = Freeze-thaw stability of MJC13 in rat plasma and rat urine; type: in vitro ADME
Experimental: Freeze-thaw stability of MJC13 in rat plasma and rat urine were evaluated by analyzing QC samples at low, medium, and high concentrations. Plasma samples that were exposed for three cycles of freezing (at −20° C.) and thawing (at room temperature) were compared with freshly prepared samples at the same concentrations.
as §1

[3] = Processed sample (autosampler) stability of MJC13 rat plasma and urine extracts; type: physicochemical; conditions: for average recoveries: acetonitrile with IS; for recoveries: acetonitrile without IS
Experimental: Processed sample stability (on-instrument or autosampler stability) of MJC13 rat plasma extracts and rat urine extracts were evaluated by analyzing QC samples at low, medium, and high concentrations. Two sets of plasma samples were extracted with acetonitrile with and without IS, respectively. The plasma extracts were kept in the autosampler for 2, 4, or 6 hours, before injecting into the LC-MS/MS. All of those samples were compared with freshly prepared samples at the same concentrations.

[4] = Solubility of MJC13 in various solvents, shake-flask method; type: physicochemical; conditions: thermodynamic from solid
Experimental: The solubility of MJC13 was evalulated. Because there is no ionizable functional group on the molecular structure, the solubility of MJC13 was expected to be low in water and barely affected by pH. In this work, the solubility of MJC13 in water, ethanol, propylene glycol, polyethylene glycol 400 (PEG 400), polysorbate 80 (Tween 80), olive oil, peanut oil, soybean oil, CAPTEX 200 and LABRAFAC Lipophile WL1349 was determined by a shake-flask method. Briefly, an excess amount of MJC13 was added to each capped glass bottle containing the selected vehicle and mixed for 48 hours at room temperature using a reciprocating shaker. The samples were centrifuged at 3000 rpm for 10 minutes and were subsequently filtered through a 0.22 μm ultrafiltration unit. The filtrates were analyzed by LC/MS/MS to determine the concentration of drug dissolved. The experiments were conducted in triplicate.

[5] = Lipophilicity (log P) between water and 1-octanol, shake-flask; type: physicochemical; conditions: 1-octanol/water, room temperature, read-out: experimental log P
Experimental: The lipophilicity of MJC13 was determined as the logarithm of partition coefficient (log P) of the solute between water and 1-octanol. Equal volumes of two-phase solution (water and 1-octanol) was mixed well in a capped glass bottle and then placed in a shaker for 24 hours to make sure that saturation equilibrium had been achieved. MJC13 (1 mL) dissolved in the two-phase solution was added the bottle. Then, MJC13 was partitioned between aqueous and 1-octanol for 72 hours at room temperature using the shake-flask method. The mixture from the bottle was centrifuged at 3000 rpm for 10 minutes and subsequently filtered through a 0.22 μm ultrafiltration unit, and then moved to a separatory funnel for phase separation. The aqueous and 1-octanol phases were analyzed by LC-MS/MS to determine the concentration of drug dissolved. Experiments were conducted in triplicate. The log P was calculated according to Eq. 3: […]
where Co and Cw represent the concentrations of MJC13 in 1-octanol and aqueous phase, respectively.

[6] = Rat plasma protein binding by ultrafiltration; type: in vitro ADME; conditions: 37° C.
Experimental: In vitro rat plasma samples of MJC13 were prepared by diluting the stock solution with acetonitrile and spiking in rat plasma at five different concentrations: 100, 500, 1000, 2000 and 5000 ng/mL to approximate the plasma concentrations of MJC13 in rats after 2 mg/kg intravenous bolus dosing. The plasma was incubated at 37° C. for 1 hours before being transferred to Amicon Ultra-0.5 mL Centrifugal Filters (EMD Millipore Corporation, Billerica, Mass.) for ultrafiltration at 3000 rpm for 10 minutes. Filtrate and nonfiltrate concentrations were determined by LC-MS/MS. The fraction unbound, fu, was determined as Eq. 4:
where Cu is the unbound concentration and Ct is the total concentration.

[7] = Pharmacokinetics of MJC13 (Formulation PT4) after IV bolus in rats, three-compartment model; type: in vivo, Sprague-Dawley rats; conditions: single IV bolus 2 mg/kg, Formulation PT4, n = 8; for half-life / Vd: iv, 2 mg/kg
Experimental: To further determine the fate of MJC13 in live animals and verify the applicability of the developed LC/MS/MS assay and formulations, pharmacokinetic studies were performed in rats. The animal experiment and protocol were reviewed and approved by the Institutional Animal Care and Use Committee at Texas Southern University. The jugular veins of eight male adult Sprague-Dawley rats (358˜377 g) were cannulated under anesthesia using a cocktail of ketamine:acetopromazine:xylazine (50:3.3:3.3 mg/kg) the day before the study. On the day of study, Formulation PT4, which includes PEG 400 and Tween 80 (1:1, v/v) with a MJC13 concentration of 7.5 mg/mL, was diluted to 1 mg/mL by normal saline. Blood and urine samples were collected from each rat right before dosing. Each rat was given a 2 mg/kg intravenous (IV) bolus dose of MJC13. Blood sample collecting tubes were heparinized and dried. In order to avoid any possible contamination, after dosing for each rat, the foremost part of each tubing associated with the needle for dosing was cut off, and then 0.5 mL of normal saline containing 20 U/mL heparin was injected to flush the tubing. Blood samples (250 μL; n=8) were collected at 5, 10, 15, 30 minutes, 1, 2, 4, 6, 8, 12, 24, 48 and 72 hours post injection, respectively. The blood samples were centrifuged at 13,000 rpm for 10 minutes and the supernatants (plasma) were obtained and immediately stored at −80° C. until analysis. Urine samples (n=4) were collected periodically, including 0-2, 2-4, 4-8, 8-12, 12-24, 24-48 and 48-72 hours post injection. After measurement of the overall urinary volume of each interval, urine samples were immediately stored at −80° C. until analysis. Within 48 hours, those plasma and urine samples were analyzed by the LC/MS/MS method of Example 1 to obtain MJC13 concentrations. After analysis, the plasma concentrations and cumulative urinary excretions of MJC13 were presented as the mean value with standard deviation (SD) and plotted against time by SigmaPlot 12.3 (Systat Software, San Jose, Calif.). (FIGS. 5, 6, 7A, and 7B).
The intravenous drug plasma concentration-time data were pharmacokinetically analyzed separately for each rat by compartmental modeling using the microcomputer-based nonlinear regression program, WINNONLIN software 5.2.1 (Pharsight Corporation, Mountain View, Calif.). A three-compartment model was provided which best described the fit for the IV bolus administration based on the appearance of the observed and predicted concentrations, the reduction in the sums of squares, and the Akaike's information criterion (Yamaoka et al., J. Pharmacokinet Biopharm., 6(2): 165-75 (1978)). The three-compartment model is described by Eq. 5:
Ct=A·e^−αt+B·e^−βt+C·e^−γt, Eq. 5
where A, B and C are the coefficients, α is the α-phase hybrid rate constant, β is β-phase hybrid rate constant, γ is the γ-phase hybrid rate constant, and Ct is the plasma concentration of MJC13 at time t. The pharmacokinetic parameters thus derived were the systemic or plasma clearance (Cl), the volume of distribution (Vd), the total area under the plasma drug concentration-time curve (AUC), and half-lives (T1/2).

[8] = Solubility of MJC13 in 50% (w/v) HP-β-CD aqueous solution; type: physicochemical
Experimental: An excess amount of MJC13 was added to a sealed glass vial (2 ml) containing saturated (50% w/v) 2-hydroxypropyl-β-cyclodextrin (HP-β-CD) aqueous solution. The vial was shaken at room temperature for 72 hours. Thereafter, the solution was centrifuged, filtered through a 0.2 μm membrane and analyzed for MJC13 by the LC/MS/MS method of Example 1. Experiments were conducted in triplicate. […] It is believed that the resulting pharmaceutical composition has improved biocompatibility because it lacks TWEEN 80 (polysorbate 80).

[9] = Solubility of MJC13 in various solvents, shake-flask method; type: physicochemical; conditions: DMSO, organic solvent or mixture
AR = conditions: cellular models of prostate cancer, micromolar concentrations; cited from earlier work
[10] = rat plasma extract, autosampler 2 hours
[11] = rat plasma extract, autosampler 4 hours
[12] = rat plasma extract, autosampler 6 hours
[13] = rat urine extract, autosampler 2 hours
[14] = rat urine extract, autosampler 4 hours
[15] = rat urine extract, autosampler 6 hours

## O=C(Nc1cccc(Cl)c1Cl)C1CCCCC1 [MJC13]
[1]; rat plasma, bench-top, 2 hours
  average MJC13 amount remaining: 98.6±1.7%
[1]; rat plasma, bench-top, 4 hours
  average MJC13 amount remaining: 97.6±2.0%
[1]; rat plasma, bench-top, 6 hours
  average MJC13 amount remaining: 97.4±1.2%
[1]; rat plasma, stored at −80° C. for 7 days
  average recoveries: 96.4±1.4%
[1]; rat urine, bench-top, 2 hours
  average MJC13 amount remaining: 97.9±2.5%
[1]; rat urine, bench-top, 4 hours
  average MJC13 amount remaining: 99.1±1.9%
[1]; rat urine, bench-top, 6 hours
  average MJC13 amount remaining: 96.7±2.8%
[1]; rat urine, stored at −80° C. for 7 days
  average MJC13 amount remaining: 95.9±2.7%
[2]; rat plasma, three freeze (−20° C.)-thaw (room temperature) cycles
  average MJC13 amount remaining: 96.7±2.0%
[2]; rat urine, three freeze-thaw cycles
  average MJC13 amount remaining: 97.5±2.4%
[3]; [10]
  average recoveries: 97.6±1.3%
  recoveries: 96.1±1.3%
[3]; [11]
  average recoveries: 98.3±1.5%
  recoveries: 97.6±1.1%
[3]; [12]
  average recoveries: 96.7±0.7%
  recoveries: 97.7±2.4%
[3]; [13]
  average recoveries: 95.8±3.2%
  recoveries: 97.4±2.2%
[3]; [14]
  average recoveries: 98.6±2.5%
  recoveries: 97.1±1.9%
[3]; [15]
  average recoveries: 97.9±1.7%
  recoveries: 96.4±3.3%
[4]; Captex 200, oil or lipid, Captex ® 200, room temperature, read-out: Solubility
  solubility at 48 h: 31.9 ± 1.6 mg/mL (≈ 117 mM)
[4]; Labrafac Lipophile WL1349, oil or lipid, Labrafac ™ Lipophile WL1349, room temperature, read-out: Solubility
  solubility at 48 h: 24 ± 1.1 mg/mL (≈ 88.2 mM)
[4]; PEG 400, organic solvent or mixture, PEG 400, room temperature, read-out: Solubility
  solubility at 48 h: 23 ± 0.7 mg/mL (≈ 84.5 mM)
[4]; ethanol, organic solvent or mixture, Ethanol, room temperature, read-out: Solubility
  solubility at 48 h: 35.6 ± 1.8 mg/mL (≈ 131 mM)
[4]; olive oil, oil or lipid, Olive oil, room temperature, read-out: Solubility
  solubility at 48 h: 16.2 ± 0.3 mg/mL (≈ 59.5 mM)
[4]; peanut oil, oil or lipid, Peanut oil, room temperature, read-out: Solubility
  solubility at 48 h: 15.6 ± 0.4 mg/mL (≈ 57.3 mM)
[4]; polysorbate 80 (Tween 80), organic solvent or mixture, Polysorbate 80, room temperature, read-out: Solubility
  solubility at 48 h: 28.2 ± 0.7 mg/mL (≈ 104 mM)
[4]; propylene glycol, organic solvent or mixture, Propylene glycol, room temperature, read-out: Solubility
  solubility at 48 h: 5.7 ± 0.2 mg/mL (≈ 20.9 mM)
[4]; soybean oil, oil or lipid, Soybean oil, room temperature, read-out: Solubility
  solubility at 48 h: 17.3 ± 0.5 mg/mL (≈ 63.6 mM)
[4]; water, Water, room temperature, read-out: Solubility
  solubility at 48 h: 0.00028 mg/mL (≈ 0.00103 mM)
[4]; water, water, room temperature, read-out: water solubility
  solubility at 48 h: 0.00028 mg/mL (≈ 0.00103 mM)
[5]
  logP at 72 h: 6.49 ± 0.37
[6]; 100 ng/mL
  fraction bound at 1 h, 100 ng/mL: 0.981 ± 0.015
[6]; 500 ng/mL
  fraction bound at 1 h, 500 ng/mL: 0.976 ± 0.027
[6]; 1000 ng/mL
  fraction bound at 1 h, 1000 ng/mL: 0.996 ± 0.017
[6]; 2000 ng/mL
  fraction bound at 1 h, 2000 ng/mL: 0.972 ± 0.028
[6]; 5000 ng/mL
  fraction bound at 1 h, 5000 ng/mL: 0.979 ± 0.024
[7]; male, Sprague-Dawley, plasma, rat, read-out: Cl (total body clearance)
  clearance: 6.04 ± 2.43 mL/min/kg
[7]; male, Sprague-Dawley, rat, plasma, rat plasma, read-out: T1/2α (elimination half-life of α-phase)
  half-life: 0.094 ± 0.0217 h
[7]; male, Sprague-Dawley, rat, plasma, rat plasma, read-out: T1/2β (elimination half-life of β-phase)
  half-life: 2.1 ± 0.317 h
[7]; male, Sprague-Dawley, rat, plasma, rat plasma, read-out: T1/2γ (elimination half-life of γ-phase)
  half-life: 32.3 ± 12.1 h
[7]; male, Sprague-Dawley, rat, plasma, rat, read-out: V1 (volume of distribution of central compartment)
  Vd: 0.744 ± 0.074 L/kg
[7]; male, Sprague-Dawley, rat, plasma, rat, read-out: Vss (volume of distribution at steady state)
  Vd: 10.8 ± 2.13 L/kg
[7]; male, Sprague-Dawley, rat plasma, read-out: AUC0-∞ (area under curve from time zero to infinity) (converted)
  AUC(0-inf): 6640 ng·h/mL
[7]; male, Sprague-Dawley, rat plasma, read-out: Cmax (maximum concentration)
  Cmax: 2710 ± 251 ng/mL
[7]; rat plasma
  A (coefficient of α-phase): 2124 ± 222 ng/mL
  B (coefficient of β-phase): >483 ± 126 ng/mL
  C (coefficient of γ-phase): 101 ± 36 ng/mL
[7]; rat
  V2 (volume of distribution of first peripheral compartment): 2.038 ± 0.646 L/kg
  V3 (volume of distribution of second peripheral compartment): 8.068 ± 1.6 L/kg
[8]; 50% (w/v) HP-β-CD aqueous solution, aqueous with cosolvent or surfactant or cyclodextrin, thermodynamic from solid, room temperature, 72 hours
  solubility at 72 h: 2.6 ± 0.3 mg/mL (≈ 9.55 mM)
[8]; 50% (w/v) HP-β-CD solution vs pure water
  increase of solubility compared to MJC13 itself in pure water: 10,000 fold
[9]
  solubility: > 100 mg/mL
AR
  block of AR-dependent gene expression: effectively block AR-dependent gene expression

Reference: US20160030369A1, “FKBP52 TARGETING AGENT PHARMACEUTICAL COMPOSITIONS” (THE UNITED STATES OF AMERICA AS REPRESENTED BY THE …, priority 2013, published 2016)
